Measurements: patent US20140206608A1 (priority 2012, published 2014)
Values after ≈ are worked out from the molar mass of the structure shown. Read-outs that look alike come from different tables or passages of the source. *1 amine or outer side, *2 acyl side, *3 side chain or, on linkers, in order; H or OH if unused. Where a SMILES comes first, the peptide text is derived from it. Side-chain parts run from the residue outwards. [ ]: non-standard residue; d: D form. The star is where a group is joined. γGlu = O=C(O)[C@H](CCC(=O)[*:2])N[*:1]; Stearoyl = CCCCCCCCCCCCCCCCCC(=O)*; Aib = CC(C)(N)C(=O)O

Key:
[1] = biological target: T1, human GLP-1 receptor (hGLP-1 R) (Homo sapiens, UniProt P43220); test: cAMP response of HEK-293 cells stably expressing human GLP-1 receptor (HTRF); type: cell-based; settings: Table 7, cAMP formation
T1 construct: expressed in transfected cells; host or cells: HEK-293
Procedure: (§1) cAMP content of cells was determined using a kit from Cisbio Corp. (cat. no. 62AM4PEC) based on HTRF (Homogenous Time Resolved Fluorescence). For preparation, cells were split into T175 culture flasks and grown overnight to near confluency in medium (DMEM/10% FBS). Medium was then removed and cells washed with PBS lacking calcium and magnesium, followed by proteinase treatment with accutase (Sigma-Aldrich cat. no. A6964). Detached cells were washed and resuspended in assay buffer (1×HBSS; 20 mM HEPES, 0.1% BSA, 2 mM IBMX) and cellular density determined. They were then diluted to 400000 cells/ml and 25 μl-aliquots dispensed into the wells of 96-well plates. For measurement, 25 μl of test compound in assay buffer was added to the wells, followed by incubation for 30 minutes at room temperature.

[2] = biological target: T2, human GIP receptor (hGIP R) (Homo sapiens, UniProt P48546); test: cAMP response of HEK-293 cells stably expressing human GIP receptor (HTRF); type: cell-based
T2 construct: expressed in transfected cells; host or cells: HEK-293
T2 sequence (P48546 22-466): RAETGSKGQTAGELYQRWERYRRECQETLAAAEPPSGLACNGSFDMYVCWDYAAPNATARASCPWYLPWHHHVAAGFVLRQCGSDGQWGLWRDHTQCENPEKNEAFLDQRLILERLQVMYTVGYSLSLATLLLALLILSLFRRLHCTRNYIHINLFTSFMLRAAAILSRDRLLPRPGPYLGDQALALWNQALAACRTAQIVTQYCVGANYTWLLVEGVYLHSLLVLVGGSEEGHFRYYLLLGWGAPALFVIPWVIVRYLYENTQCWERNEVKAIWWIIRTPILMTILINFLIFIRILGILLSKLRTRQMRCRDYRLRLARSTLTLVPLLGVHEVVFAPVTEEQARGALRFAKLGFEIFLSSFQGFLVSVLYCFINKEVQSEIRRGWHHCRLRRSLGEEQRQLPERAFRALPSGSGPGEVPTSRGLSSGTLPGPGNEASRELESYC
Procedure: as §1

[3] = biological target: T3, human glucagon receptor (hGLUC R) (Homo sapiens, UniProt P47871); test: cAMP response of HEK-293 cells stably expressing human glucagon receptor (HTRF); type: cell-based; settings: Table 7, cAMP formation
T3 construct: expressed in transfected cells; host or cells: HEK-293
Procedure: as §1

[4] = test system: non-fasted female diabetic dbdb-mice; test: Glucose lowering in non-fasted female diabetic dbdb-mice; type: in vivo; settings: 3 μg/kg s.c.
Source text: Female diabetic dbdb-mice of mean non-fasted glucose value of 20-22 mmol/l and a body weight of 42 g+/−0.6 g (SEM) were used. Mice were individually marked and were adapted to housing conditions for at least one week.
3-5 days prior to study start mice were assigned to groups and cages (4 mice per cage, 8 per group) according to their non-fasted glucose values to ensure even distribution of lower and higher values between groups (stratification). On the study day, mice were weighed and dosed (t=0). Immediately prior to compound administration feed was removed while water remained available, and a first blood sample at a tail incision was drawn (baseline). Further blood samples were drawn at the tail incision at 30, 60, 90, 120, 240, 360, and 480 min.
Statistical analyses are performed with Everstat Version 6.0 based on SAS by 2-way-ANOVA on repeated measures, followed by Dunnett's post-hoc test against vehicle-control. Differences are considered statistically significant at the p<0.05 level.
Female dbdb-mice, received 3 μg/kg of SEQ ID NO: 13 or phosphate buffered saline (vehicle control) subcutaneously, at time 0 min.

[5] = Solubility testing in buffer systems (HPLC-UV); type: physicochemical; settings: buffer system, target concentration 1.0 mg/mL
[6] = Chemical stability in solution, 7 days at 25° C. (% remaining peptide); type: physicochemical; settings: % remaining peptide after 7 days at 25° C., pH 7.4
Source text: The chemical stability is expressed as “% remaining peptide”.

[7] = biological target: human GLP-1 receptor (human) (UniProt P43220); test: cell-based or functional assay
[8] = biological target: T4, human GIP receptor (human) (UniProt P48546); test: cell-based or functional assay
T4 sequence (looked up): T2 sequence (P48546 22-466)

T3 sequence (P47871 26-477): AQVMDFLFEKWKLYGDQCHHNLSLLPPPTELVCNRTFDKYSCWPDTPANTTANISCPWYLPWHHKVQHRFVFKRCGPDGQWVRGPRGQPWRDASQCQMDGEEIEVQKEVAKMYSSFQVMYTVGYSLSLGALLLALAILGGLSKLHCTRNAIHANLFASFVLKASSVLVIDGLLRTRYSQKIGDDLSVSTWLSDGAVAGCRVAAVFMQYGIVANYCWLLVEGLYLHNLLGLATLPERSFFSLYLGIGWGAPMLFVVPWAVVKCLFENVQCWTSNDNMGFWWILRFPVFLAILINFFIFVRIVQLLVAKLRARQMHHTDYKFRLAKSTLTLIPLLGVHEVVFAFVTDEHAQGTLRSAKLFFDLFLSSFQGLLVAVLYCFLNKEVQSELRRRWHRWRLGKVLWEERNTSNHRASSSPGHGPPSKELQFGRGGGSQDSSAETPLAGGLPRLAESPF
T1 sequence (P43220 24-463): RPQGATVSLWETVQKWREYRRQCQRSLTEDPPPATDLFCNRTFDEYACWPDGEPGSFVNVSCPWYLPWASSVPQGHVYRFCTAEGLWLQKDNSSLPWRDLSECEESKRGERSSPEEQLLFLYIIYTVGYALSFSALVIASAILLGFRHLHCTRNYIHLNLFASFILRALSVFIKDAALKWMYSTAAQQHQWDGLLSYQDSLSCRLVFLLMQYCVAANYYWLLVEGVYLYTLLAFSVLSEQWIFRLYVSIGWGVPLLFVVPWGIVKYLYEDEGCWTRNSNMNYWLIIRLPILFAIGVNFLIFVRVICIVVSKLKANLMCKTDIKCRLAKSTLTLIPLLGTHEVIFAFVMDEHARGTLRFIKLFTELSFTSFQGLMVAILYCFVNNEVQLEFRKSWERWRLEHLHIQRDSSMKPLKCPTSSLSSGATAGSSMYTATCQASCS
Sequence of human GLP-1 receptor (human) (P43220 24-463): as above

CCCCCCCCCCCCCCCCCC(=O)N[C@@H](CCC(=O)NCCCC[C@H](NC(=O)[C@H](CCC(N)=O)NC(=O)[C@@H](NC(=O)[C@H](CO)NC(=O)[C@H](CC(C)C)NC(=O)[C@H](CC(=O)O)NC(=O)[C@H](CO)NC(=O)[C@@H](NC(=O)[C@H](Cc1ccccc1)NC(=O)[C@@H](NC(=O)CNC(=O)[C@H](CCC(=O)O)NC(=O)C(C)(C)NC(=O)[C@@H](N)Cc1ccc(O)cc1)[C@@H](C)O)[C@@H](C)O)[C@@H](C)CC)C(=O)N[C@@H](CCC(=O)O)C(=O)N[C@@H](CCC(=O)O)C(=O)N[C@@H](CCC(=O)O)C(=O)N[C@@H](C)C(=O)N[C@H](C(=O)N[C@@H](CCCNC(=N)N)C(=O)N[C@@H](CC(C)C)C(=O)N[C@@H](Cc1ccccc1)C(=O)N[C@H](C(=O)N[C@@H](CCC(=O)O)C(=O)N[C@@H](Cc1c[nH]c2ccccc12)C(=O)N[C@@H](CC(C)C)C(=O)N[C@@H](CCCCN)C(=O)NC(C)(C)C(=O)NCC(=O)NCC(=O)N1CCC[C@H]1C(=O)N[C@@H](CO)C(=O)N[C@@H](CO)C(=O)NCC(=O)N[C@@H](C)C(=O)N1CCC[C@H]1C(=O)N1CCC[C@H]1C(=O)N1CCC[C@H]1C(=O)N[C@@H](CO)C(N)=O)[C@@H](C)CC)C(C)C)C(=O)O [SEQ ID NO: 9, Y-Aib-E-G-T-F-T-S-D-L-S-I-Q-K(γE-x70)-E-E-E-A-V-R-L-F-I-E-W-L-K-Aib-G-G-P-S-S-G-A-P-P-P-S-NH2]
EC50 ([1]; EC50 hGLP-1 R): 0.0267 nM
EC50 [2]: 0.0146 nM
EC50 ([3]; EC50 hGLUC R): 164 nM

CCCCCCCCCCCCCCCCCC(=O)N[C@@H](CCC(=O)NCCCC[C@H](NC(=O)[C@H](CCC(N)=O)NC(=O)[C@@H](NC(=O)[C@H](CO)NC(=O)[C@H](CC(C)C)NC(=O)[C@H](CC(=O)O)NC(=O)[C@H](CO)NC(=O)[C@@H](NC(=O)[C@H](Cc1ccccc1)NC(=O)[C@@H](NC(=O)CNC(=O)[C@H](CCC(=O)O)NC(=O)C(C)(C)NC(=O)[C@@H](N)Cc1ccc(O)cc1)[C@@H](C)O)[C@@H](C)O)[C@@H](C)CC)C(=O)N[C@@H](CCC(=O)O)C(=O)N[C@@H](CCCCN)C(=O)N[C@@H](CCC(=O)O)C(=O)N[C@@H](C)C(=O)N[C@H](C(=O)N[C@@H](CCCNC(=N)N)C(=O)N[C@@H](CC(C)C)C(=O)N[C@@H](Cc1ccccc1)C(=O)N[C@H](C(=O)N[C@@H](CCC(=O)O)C(=O)N[C@@H](Cc1c[nH]c2ccccc12)C(=O)N[C@@H](CC(C)C)C(=O)N[C@@H](CCCCN)C(=O)N[C@@H](C)C(=O)NCC(=O)NCC(=O)N1CCC[C@H]1C(=O)N[C@@H](CO)C(=O)N[C@@H](CO)C(=O)NCC(=O)N[C@@H](C)C(=O)N1CCC[C@H]1C(=O)N1CCC[C@H]1C(=O)N1CCC[C@H]1C(=O)N[C@@H](CO)C(N)=O)[C@@H](C)CC)C(C)C)C(=O)O [SEQ ID NO: 13, Y-Aib-E-G-T-F-T-S-D-L-S-I-Q-K(γE-x70)-EKEAVRLFIEWLKAGGPSSGAPPPS-NH2] (H-Y[Aib]EGTFTSDLSIQK([γGlu-Stearoyl])EKEAVRLFIEWLKAGGPSSGAPPPS-NH2)
maximal effect, glucose reduction ([4]; at 240 min, kept to 480 min, baseline 20-22 mmol/l): ~12 mmol/L
reduction of glucose compared to vehicle control ([4]; from t=90 min until end of observation, p<0.05): statistical significant reduction of glucose
EC50 ([1]; read-out: EC50 hGLP-1 R): 0.0212 nM
EC50 ([2]; Table 7, cAMP formation, read-out: EC50 hGIP R): 0.0168 nM
solubility at 2 h ([5]; pH 4.5, read-out: Solubility (pH 4.5)): 688 µg/mL (≈ 150 µM)
solubility at 2 h ([5]; pH 7.4, read-out: Solubility (pH 7.4)): 824 µg/mL (≈ 180 µM)
EC50 ([3]; read-out: EC50 hGLUC R): 200 nM
Stability (pH 7.4) [6]: 84.0%

Tyr(1)Ile(12)-exendin-4 (peptide)
EC50 hGLP-1 R [pM] (formed cAMP) [7]: 1.3 pM
EC50 hGIP R [pM] (formed cAMP) [8]: 93.9 pM
